Reference: PMC11815855, “Exploring the Structure–Activity Relationships of Albumin-Targeted Picoplatin-Based Platinum(IV) Prodrugs” (Inorganic Chemistry, 2025)

Tests used:
CT26 tumors = experiment: Anticancer activity in vivo, CT26-bearing Balb/c mice; settings: i.v. on days 3 and 10, dose equimolar to 20 mg/kg picoplatin
Procedure: Ten-week-old Balb/c mice were purchased from Envigo Laboratories (San Pietro al Natisone, Italy). […] Animals were controlled for distress development every day, and tumor size was assessed regularly by caliper measurement. Tumor volume was calculated using the formula: (length × width^2)/2.
CT26 cells (5 × 10^5 in serum-free medium) were injected subcutaneously into the right flank of male Balb/c mice. Therapy was started when tumor nodules were palpable (day 3). […] Mice were sacrificed by cervical dislocation in the case of a tumor length >20 mm, tumor ulceration, or other signs for distress.

[1] = Serum pharmacokinetics and tumor/organ distribution (Pt by ICP-MS) in CT26-bearing Balb/c mice; type: in vivo; settings: single i.v. dose equimolar to 20 mg/kg picoplatin
Procedure: CT-26 cells (5 × 10^5 cells in 50 μL of serum-free medium) were subcutaneously injected into the right flank of male Balb/c mice. […]. […] and the three maleimide-containing platinum(IV) complexes were dissolved in 30% PEG400-containing 0.9% NaCl and PBS (Cytiva, USA), respectively. […]. After a 10 min clotting period of the blood at RT, the serum was separated by centrifugation (900 g, 10 min, repeated twice). Tumor and organ accumulation of the drug was assessed at 5 and 24 h postadministration (2 animals per time point). Mice were euthanized via cervical dislocation, and their tumors and organs were excised. All collected samples were stored at −20 °C until further processing for Pt concentration analysis by ICP-MS. […] Approximately 15–30 mg of tissue (gravimetrically measured) was digested with 2 mL of 20% nitric acid and 100 μL of H2O2 in an open-vessel graphite digestion system (Labter, ODLAB; AHF Analysentechnik AG, Germany), using PFA vials and lids. […] Quantification of total Pt content was performed on a quadrupole-based ICP-MS instrument (Agilent 7800, Agilent Technologies, Tokyo, Japan), equipped with an Agilent SPS 4 autosampler and a MicroMist nebulizer. […] Rh was used as the internal standard for Pt quantification. […]

In the case of CC(=O)[O][Pt]([Cl])([Cl])[O]C(=O)NCCN1C(=O)C=CC1=O.Cc1ccccn1.N [Pico-Mal], the “impact on tumor growth” value (CT26 tumors) is reported as “inactive” and the “platinum levels in the kidneys” value [1] is reported as “higher”.
